Measured values published in patent publication US8486647B2, “Neuropeptide release assay for sodium channels” (priority 2010, dated 2013).
Where “and” joins values, the source holds several entries; their conditions need not be identical. Identical values can stand only once.

What was measured:
Scn9a^3.1/3.1 DRG = test: CGRP release assay, Scn9a^3.1/3.1 DRG; assay type: cell-based, mouse
Scn9a^+/+ DRG = test: CGRP release assay, Scn9a^+/+ DRG; assay type: cell-based, mouse

Row | Molecule | inflammatory mix-induced release of CGRP (Scn9a^3.1/3.1 DRG) | CGRP released (Scn9a^+/+ DRG) | inflammatory mix-induced release of CGRP (Scn9a^+/+ DRG)
1 | CCN(CC)CC(=O)Nc1c(C)cccc1C [Lidocaine] | notably enhanced | – | –
2 | ProTx-II [Pro-TXII] | – | 186 ± 40 pg/mL and 126 ± 25 pg/mL | notably enhanced
3 | NC1=N[C@H](O)[C@H]2[C@H]3O[C@]4(O)O[C@@H]([C@@H](O)[C@@]2(N1)[C@@H]4O)[C@]3(O)CO [TTX, Tetrodotoxin] | – | – | notably enhanced
